According to ChEMBL document CHEMBL4433196, “A novel delocalized lipophilic cation-chlorambucil conjugate inhibits P-glycoprotein in HepG2/ADM cells” (Bioorg Med Chem, 2017):
Activity calls are given as the source filed them. The calls are words filed in the database; no cut-off is given here.

Assays:
[1] = Drug localization in cellular membrane of human HepG2 cells at 20 uM incubated for 2 hrs by mitotracker 633 staining based inverted confocal microscope; type: ADME, cell membranes; conditions: hepg2, 2 h
[2] = test system: HepG2/Adm; assay: Downregulation of Pgp in human HepG2/ADM cells at 20 uM incubated for 48 hrs by flow cytometric analysis; type: functional, cell-based
[3] = target: T1, ATP-dependent translocase ABCB1 (Homo sapiens, UniProt P08183); assay: Inhibition of Pgp in human HepG2/ADM cells at 20 uM incubated for 2 hrs by mitotracker 633 staining based inverted confocal microscopy; type: cell-based
T1 sequence (P08183 whole entry): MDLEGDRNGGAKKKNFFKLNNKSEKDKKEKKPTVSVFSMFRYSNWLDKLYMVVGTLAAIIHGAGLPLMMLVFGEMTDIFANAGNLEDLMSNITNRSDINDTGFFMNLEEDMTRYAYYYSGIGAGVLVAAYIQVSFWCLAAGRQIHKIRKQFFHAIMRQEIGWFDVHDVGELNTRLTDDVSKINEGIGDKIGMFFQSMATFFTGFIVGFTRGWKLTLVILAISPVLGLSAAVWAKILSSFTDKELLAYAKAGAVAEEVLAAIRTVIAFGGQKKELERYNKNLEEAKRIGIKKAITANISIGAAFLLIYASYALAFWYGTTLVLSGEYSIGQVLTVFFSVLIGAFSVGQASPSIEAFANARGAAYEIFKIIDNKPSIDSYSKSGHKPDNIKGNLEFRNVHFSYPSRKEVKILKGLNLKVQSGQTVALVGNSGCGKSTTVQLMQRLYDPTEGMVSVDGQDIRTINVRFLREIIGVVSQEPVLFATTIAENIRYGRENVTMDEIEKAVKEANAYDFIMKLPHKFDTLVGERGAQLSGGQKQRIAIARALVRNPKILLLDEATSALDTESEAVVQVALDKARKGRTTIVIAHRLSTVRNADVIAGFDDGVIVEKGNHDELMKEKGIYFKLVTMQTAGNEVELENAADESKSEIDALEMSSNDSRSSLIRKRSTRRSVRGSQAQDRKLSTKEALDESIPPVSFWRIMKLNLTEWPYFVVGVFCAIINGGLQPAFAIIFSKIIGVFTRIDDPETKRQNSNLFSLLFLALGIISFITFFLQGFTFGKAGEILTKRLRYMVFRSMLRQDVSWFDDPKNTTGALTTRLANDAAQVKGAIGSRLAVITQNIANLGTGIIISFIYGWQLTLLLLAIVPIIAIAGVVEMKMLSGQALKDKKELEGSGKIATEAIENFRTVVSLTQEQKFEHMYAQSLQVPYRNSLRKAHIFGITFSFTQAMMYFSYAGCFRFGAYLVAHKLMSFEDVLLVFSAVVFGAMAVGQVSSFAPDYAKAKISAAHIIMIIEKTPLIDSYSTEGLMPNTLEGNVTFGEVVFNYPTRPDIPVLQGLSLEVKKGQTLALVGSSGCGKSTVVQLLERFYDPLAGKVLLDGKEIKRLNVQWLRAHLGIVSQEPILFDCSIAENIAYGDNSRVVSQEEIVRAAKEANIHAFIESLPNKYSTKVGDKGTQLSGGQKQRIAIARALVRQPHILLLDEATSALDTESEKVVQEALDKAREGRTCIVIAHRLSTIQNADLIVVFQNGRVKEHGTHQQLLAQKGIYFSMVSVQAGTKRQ

[4] = Induction of apoptosis in human HepG2/ADM cells assessed as viable cells at 20 uM incubated for 72 hrs in presence of ADM by Annexin V-FITC/SYTOX Red staining based flow cytometric analysis (reference value: 88.7%); type: functional; conditions: read-out: Activity
[5] = Cytotoxicity against human HepG2/ADM cells assessed as cell growth inhibition incubated for 72 hrs by MTT assay; type: functional, cell-based
[6] = test system: HepG2/Adm; assay: Downregulation of MDR1 mRNA in human HepG2/ADM cells at 5 to 20 uM incubated for 24 hrs by real time qPCR analysis; type: functional, cell-based
[7] = target: T1, ATP-dependent translocase ABCB1; assay: Inhibition of Pgp in human HepG2/ADM cells assessed as increase in intracellular ADM level at 20 uM incubated for 12 hrs by flow cytometric analysis; type: cell-based
[8] = test system: HepG2; assay: Cytotoxicity against human HepG2 cells assessed as cell growth inhibition incubated for 72 hrs by MTT assay; type: functional, cell-based; conditions: HepG2, 72 h
[9] = Induction of apoptosis in human HepG2/ADM cells assessed as necrotic cells at 20 uM incubated for 72 hrs by Annexin V-FITC/SYTOX Red staining based flow cytometric analysis (Rvb =0%); type: functional
[10] = Drug accumulation in human HepG2 cells at 10 uM incubated for 3 hrs by flow cytometric analysis; type: ADME, cell-based; conditions: hepg2, 3 h
[11] = test system: L02; assay: Cytotoxicity against human L02 cells assessed as cell growth inhibition incubated for 72 hrs by MTT assay; type: cell-based; conditions: L02, 72 h
[12] = test system: HepG2/Adm; assay: Downregulation of Pgp in human HepG2/ADM cells at 5 to 20 uM incubated for 48 hrs by Western blot analysis; type: functional, cell-based
[13] = test system: NIH3T3; assay: Cytotoxicity against mouse NIH/3T3 cells assessed as cell growth inhibition incubated for 72 hrs by MTT assay; type: cell-based; conditions: NIH3T3, 72 h
[14] = Induction of apoptosis in human HepG2/ADM cells assessed as necrotic cells at 20 uM incubated for 72 hrs in presence of ADM by Annexin V-FITC/SYTOX Red staining based flow cytometric analysis (Rvb =0.1%); type: functional
[15] = Induction of apoptosis in human HepG2/ADM cells assessed as viable cell at 20 uM incubated for 72 hrs by Annexin V-FITC/SYTOX Red staining based flow cytometric analysis (reference value: 94.4%); type: functional
[16] = Drug localization in mitochondria of human HepG2/ADM cells at 20 uM incubated for 2 hrs by mitotracker 633 staining based inverted confocal microscope; type: ADME
[17] = Drug localization in cellular membrane of human HepG2/ADM cells at 20 uM incubated for 2 hrs by mitotracker 633 staining based inverted confocal microscope; type: ADME, cell membranes
[18] = Induction of apoptosis in human HepG2/ADM cells assessed as early apoptotic cells at 20 uM incubated for 72 hrs by Annexin V-FITC/SYTOX Red staining based flow cytometric analysis (reference value: 5.52%); type: functional
[19] = Drug accumulation in human L02 cells at 10 uM incubated for 3 hrs by flow cytometric analysis; type: ADME, cell-based; conditions: l02, 3 h
[20] = Drug localization in mitochondria of human HepG2 cells at 20 uM incubated for 2 hrs by mitotracker 633 staining based inverted confocal microscope; type: ADME; conditions: hepg2, 2 h
[21] = target: T1, ATP-dependent translocase ABCB1; assay: Inhibition of Pgp in human HepG2/ADM cells assessed as increase in intracellular ADM level at 20 uM incubated for 2 hrs by mitotracker 633 staining based inverted confocal microscopic analysis; type: cell-based
[22] = Induction of apoptosis in human HepG2/ADM cells assessed as late apoptotic cells at 20 uM incubated for 72 hrs by Annexin V-FITC/SYTOX Red staining based flow cytometric analysis (Rvb =0.04%); type: functional
[23] = Induction of apoptosis in human HepG2/ADM cells assessed as apoptotic cells at 20 uM incubated for 72 hrs in presence of ADM by Annexin V-FITC/SYTOX Red staining based flow cytometric analysis (reference value: 2.60%); type: functional
[24] = Induction of apoptosis in human HepG2/ADM cells assessed as early apoptotic cells at 20 uM incubated for 72 hrs in presence of ADM by Annexin V-FITC/SYTOX Red staining based flow cytometric analysis (reference value: 8.58%); type: functional
[25] = Potency index, ratio of IC50 for human HepG2/ADM cells to IC50 for human HepG2 cells; type: functional

Compound	viability at 20 µM [4] [%]	IC50 [5] [µM]	IC50 [8] [µM]	Activity [9] [%]	IC50 [11] [µM]	IC50 [13] [µM]	Activity [14] [%]	Activity [15] [%]	Activity [18] [%]	Activity [22] [%]	Activity [23] [%]	Activity [24] [%]	further results
O=C(CCCc1ccc(N(CCCl)CCCl)cc1)NCCC[n+]1ccc(/C=C/c2c[nH]c3ccc(F)cc23)cc1.[Br-]	33.5	60.5	60	0.01	> 600	> 600	0	85.7	14.2	0.09	2.38	64	Drug uptake [1]: Active; Activity [2]: Active; inhibition (INH) [3]: Active; Activity [6]: Active; inhibition (INH) [7]: Active; Drug uptake [10]: Active; Activity [12]: Active; Drug uptake [16]: Active; Drug uptake [17]: Active; Drug uptake [19]: Not Active; Drug uptake [20]: Active; inhibition (INH) [21]: Active
O=C(O)CCCc1ccc(N(CCCl)CCCl)cc1 [CHLORAMBUCIL]	87.5	297	190	0.01	> 600	> 600	0	90.9	9.08	0.01	0.05	12.4	
Cl.NCCC[n+]1ccc(/C=C/c2c[nH]c3ccc(F)cc23)cc1.[Br-]	55.6	102	103	0.25	> 600	> 600	1.21	88.4	8.72	2.66	17	26.2	
COc1cccc2c1C(=O)c1c(O)c3c(c(O)c1C2=O)C[C@@](O)(C(=O)CO)C[C@@H]3O[C@H]1C[C@H](N)[C@H](O)[C@H](C)O1.Cl [DOXORUBICIN HYDROCHLORIDE]		144	0.67										Ratio IC50 [25]: 215.4
